Legend:
Type in all cases: biochemical
Human recombinant PDE4B = molecular target: T1, Human recombinant PDE4B (Homo sapiens, UniProt Q07343); assay: PDE4B IMAP fluorescence polarisation assay; conditions: human recombinant PDE4B (HSPDE4B2B); accurate to within ±0.5; read-out: PDE4B mean pIC50 (converted)
T1 construct: made in house; host or cells: Saccharomyces cerevisiae strain GL62
Text: Human recombinant PDE4B, in particular the 2B splice variant thereof (HSPDE4B2B), is disclosed in WO 94/20079 and also in M. M. McLaughlin et al., “A low Km, rolipram-sensitive, cAMP-specific phosphodiesterase from human brain: cloning and expression of cDNA, biochemical characterisation of recombinant protein, and tissue distribution of mRNA”, J. Biol. Chem., 1993, 268, 6470-6476. For example, in Example 1 of WO 94/20079, human recombinant PDE4B is described as being expressed in the PDE-deficient yeast Saccharomyces cerevisiae strain GL62, e.g. after induction by addition of 150 uM CuSO4, and 100,000×g supernatant fractions of yeast cell lysates are described for use in the harvesting of PDE4B enzyme.
(§1) The ability of compounds to inhibit PDE catalytic activity was determined by IMAP Fluorescence Polarisation (FP) assay (Molecular Devices Ltd code: R8062) in 384-well format. Test compounds (small volume, e.g. 0.5 μl, of solution in DMSO) were preincubated at ambient temperature in black 384-well microtitre plates (supplier: NUNC, code 262260) with PDE enzyme in 10 mM Tris-HCl buffer pH 7.2, 10 mM MgCl2, 0.1% (w/v) bovine serum albumin, 0.05% NaN3 for 10-30 minutes. The enzyme level was set so that reaction was linear throughout the incubation.
For the PDE3, PDE4B and PDE4D assays Fluorescein adenosine 3′,5′-cyclic phosphate (Molecular Devices Ltd code: R7091) was added to give ˜40 nM final concentration. For the PDE5 and PDE6 assays Fluorescein guanosine 3′,5′-cyclic phosphate (Molecular Devices Ltd code: R7090) was added to give ˜40 nM final concentration. Plates were mixed on an orbital shaker for 10 seconds and incubated at ambient temperature for 40 minutes. IMAP binding reagent (Molecular Devices Ltd code: R7207) was added (60 μl of a 1 in 400 dilution in binding buffer of the kit stock solution) to terminate the assay. […] The FP ratio of parallel to perpendicular light was measured using an Analyst™ plate reader (from Molecular Devices Ltd). […] Curves were analysed using ActivityBase and XLfit (ID Business Solutions Limited). Results were expressed as pIC50 values.

Human recombinant PDE4D = Human recombinant PDE4D (Homo sapiens, UniProt Q08499); assay: PDE4D IMAP fluorescence polarisation assay; conditions: human recombinant PDE4D (HSPDE4D3A); accurate to within ±0.5; read-out: PDE4D mean pIC50 (converted)
Chain of Human recombinant PDE4D (Q08499 1-673 isoform Q08499-2): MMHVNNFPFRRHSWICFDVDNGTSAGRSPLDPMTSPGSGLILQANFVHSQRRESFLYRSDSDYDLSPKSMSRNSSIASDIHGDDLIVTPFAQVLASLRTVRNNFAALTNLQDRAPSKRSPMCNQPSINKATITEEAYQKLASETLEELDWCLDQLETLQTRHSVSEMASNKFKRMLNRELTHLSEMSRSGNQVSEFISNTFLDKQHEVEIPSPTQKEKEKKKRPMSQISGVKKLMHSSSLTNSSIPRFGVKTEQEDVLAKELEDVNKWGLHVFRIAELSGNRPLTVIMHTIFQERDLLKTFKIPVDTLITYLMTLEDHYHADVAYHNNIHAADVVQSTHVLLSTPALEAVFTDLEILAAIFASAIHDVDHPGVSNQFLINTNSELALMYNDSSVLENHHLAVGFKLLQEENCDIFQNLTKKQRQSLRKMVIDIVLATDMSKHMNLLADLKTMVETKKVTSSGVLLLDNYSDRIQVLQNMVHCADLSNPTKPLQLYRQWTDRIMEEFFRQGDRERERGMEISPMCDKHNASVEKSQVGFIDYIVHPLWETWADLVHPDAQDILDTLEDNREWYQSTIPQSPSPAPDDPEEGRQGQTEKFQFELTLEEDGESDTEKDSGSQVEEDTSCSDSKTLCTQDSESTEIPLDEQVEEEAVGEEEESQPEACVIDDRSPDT
Procedure: Human recombinant PDE4D (HSPDE4D3A) is disclosed in P. A. Baecker et al., “Isolation of a cDNA encoding a human rolipram-sensitive cyclic AMP phoshodiesterase (PDE IVD)”, Gene, 1994, 138, 253-256.
as §1
(§2) For the PDE3, PDE4B and PDE4D assays Fluorescein adenosine 3′,5′-cyclic phosphate (Molecular Devices Ltd code: R7091) was added to give ˜40 nM final concentration. For the PDE5 and PDE6 assays Fluorescein guanosine 3′,5′-cyclic phosphate (Molecular Devices Ltd code: R7090) was added to give ˜40 nM final concentration. Plates were mixed on an orbital shaker for 10 seconds and incubated at ambient temperature for 40 minutes. IMAP binding reagent (Molecular Devices Ltd code: R7207) was added (60 μl of a 1 in 400 dilution in binding buffer of the kit stock solution) to terminate the assay. Plates were allowed to stand at ambient temperature for 1 hour. The FP ratio of parallel to perpendicular light was measured using an Analyst™ plate reader (from Molecular Devices Ltd). […] Curves were analysed using ActivityBase and XLfit (ID Business Solutions Limited). Results were expressed as pIC50 values.

Human recombinant PDE5 = Human recombinant PDE5 (Homo sapiens, UniProt O76074); assay: PDE5 IMAP fluorescence polarisation assay; conditions: accurate to within ±0.5, read-out: PDE5 mean pIC50 (converted)
Procedure: Human recombinant PDE5 is disclosed in K. Loughney et al., “Isolation and characterisation of cDNAs encoding PDE5A, a human cGMP-binding, cGMP-specific 3′,5′-cyclic nucleotide phosphodiesterase”, Gene, 1998, 216, 139-147.
as §1, §2

PDE6 = molecular target: T2, PDE6 (Bos taurus, UniProt P11541+P23439); assay: PDE6 IMAP fluorescence polarisation assay; conditions: PDE6 from bovine retina; accurate to within ±0.5; read-out: PDE6 mean pIC50 (converted)
T2 construct: PDE6 may be purified from bovine retina; from tissue; host or cells: bovine retina
T2 sequence (P11541 2-856 limits assumed): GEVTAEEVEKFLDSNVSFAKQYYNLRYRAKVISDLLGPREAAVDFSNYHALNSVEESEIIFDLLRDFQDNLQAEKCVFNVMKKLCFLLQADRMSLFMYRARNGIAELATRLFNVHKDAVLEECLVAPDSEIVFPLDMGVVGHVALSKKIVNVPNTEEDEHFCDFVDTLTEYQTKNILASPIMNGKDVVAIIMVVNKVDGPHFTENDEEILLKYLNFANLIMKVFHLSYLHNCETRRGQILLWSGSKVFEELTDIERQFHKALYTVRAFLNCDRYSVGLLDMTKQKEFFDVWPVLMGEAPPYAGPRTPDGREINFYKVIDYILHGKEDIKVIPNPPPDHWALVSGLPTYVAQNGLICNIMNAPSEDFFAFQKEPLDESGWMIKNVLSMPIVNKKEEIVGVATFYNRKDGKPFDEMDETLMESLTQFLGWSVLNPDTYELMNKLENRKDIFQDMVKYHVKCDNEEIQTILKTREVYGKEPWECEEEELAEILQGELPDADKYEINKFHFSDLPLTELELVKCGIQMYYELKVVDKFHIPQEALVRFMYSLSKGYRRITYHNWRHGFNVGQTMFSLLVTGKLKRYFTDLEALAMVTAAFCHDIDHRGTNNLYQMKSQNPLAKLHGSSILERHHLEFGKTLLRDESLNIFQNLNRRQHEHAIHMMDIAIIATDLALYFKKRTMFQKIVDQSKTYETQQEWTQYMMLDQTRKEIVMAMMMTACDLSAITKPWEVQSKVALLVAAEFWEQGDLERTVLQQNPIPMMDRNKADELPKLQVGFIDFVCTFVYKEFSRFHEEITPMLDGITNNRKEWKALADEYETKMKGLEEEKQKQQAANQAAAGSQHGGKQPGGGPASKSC
T2 sequence (P23439 2-850 limits assumed): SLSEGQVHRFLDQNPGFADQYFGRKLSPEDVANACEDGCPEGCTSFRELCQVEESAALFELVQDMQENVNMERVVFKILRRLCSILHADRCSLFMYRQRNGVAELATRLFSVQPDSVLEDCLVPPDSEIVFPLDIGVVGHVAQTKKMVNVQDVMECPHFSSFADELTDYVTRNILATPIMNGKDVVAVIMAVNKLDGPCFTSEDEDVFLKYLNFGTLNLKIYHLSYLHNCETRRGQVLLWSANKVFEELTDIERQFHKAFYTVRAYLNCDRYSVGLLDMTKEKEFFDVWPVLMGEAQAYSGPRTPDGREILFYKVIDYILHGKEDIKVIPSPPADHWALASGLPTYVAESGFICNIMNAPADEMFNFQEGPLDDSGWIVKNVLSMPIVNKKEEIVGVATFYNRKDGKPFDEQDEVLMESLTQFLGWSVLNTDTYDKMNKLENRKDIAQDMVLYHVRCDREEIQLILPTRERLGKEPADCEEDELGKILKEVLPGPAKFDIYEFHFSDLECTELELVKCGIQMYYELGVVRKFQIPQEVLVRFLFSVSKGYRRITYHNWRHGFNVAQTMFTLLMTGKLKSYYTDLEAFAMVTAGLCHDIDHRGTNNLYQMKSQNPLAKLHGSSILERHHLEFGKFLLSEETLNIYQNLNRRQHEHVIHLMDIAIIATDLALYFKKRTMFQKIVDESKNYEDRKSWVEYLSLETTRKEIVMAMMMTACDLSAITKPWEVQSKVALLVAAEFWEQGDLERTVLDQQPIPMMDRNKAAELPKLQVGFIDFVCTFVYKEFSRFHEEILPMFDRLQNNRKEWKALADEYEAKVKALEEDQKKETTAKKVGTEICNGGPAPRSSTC
Text: PDE6 may be purified from bovine retina as described by: P. Catty and P. Deterre, “Activation and solubilization of the retinal cGMP-specific phosphodiesterase by limited proteolysis”, Eur. J. Biochem., 1991, 199, 263-269; A. Tar et al. “Purification of bovine retinal cGMP phosphodiesterase”, Methods in Enzymology, 1994, 238, 3-12; and/or D. Srivastava et al. “Effects of magnesium on cyclic GMP hydrolysis by the bovine retinal rod cyclic GMP phosphodiesterase”, Biochem. J., 1995, 308, 653-658.
as §1, §2

T1 sequence (Q07343 1-564 isoform Q07343-2): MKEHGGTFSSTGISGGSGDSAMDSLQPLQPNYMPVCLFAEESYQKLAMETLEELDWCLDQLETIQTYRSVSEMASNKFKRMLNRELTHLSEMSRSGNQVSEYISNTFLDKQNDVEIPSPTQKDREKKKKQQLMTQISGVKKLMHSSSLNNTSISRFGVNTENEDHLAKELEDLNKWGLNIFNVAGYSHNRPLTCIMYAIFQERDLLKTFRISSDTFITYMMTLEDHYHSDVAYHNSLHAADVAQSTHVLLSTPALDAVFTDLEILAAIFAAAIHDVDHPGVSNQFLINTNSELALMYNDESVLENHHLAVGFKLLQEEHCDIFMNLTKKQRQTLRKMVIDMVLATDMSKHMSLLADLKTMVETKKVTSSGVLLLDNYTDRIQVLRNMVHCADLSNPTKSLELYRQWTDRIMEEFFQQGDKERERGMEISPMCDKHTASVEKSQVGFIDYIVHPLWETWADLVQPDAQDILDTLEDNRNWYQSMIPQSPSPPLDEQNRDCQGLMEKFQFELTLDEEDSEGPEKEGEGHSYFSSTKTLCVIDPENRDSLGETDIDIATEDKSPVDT

Row | IC50 (Human recombinant PDE4B) [nM] | IC50 (Human recombinant PDE4D) [nM] | IC50 (Human recombinant PDE5) [µM] | IC50 (PDE6) [µM] | Compound
1 | 0.316 | 0.316 | > 10 | > 10 | CSc1cc2c(Nc3cccc4c3CCO4)c(C(N)=O)cnc2c(C)n1 [Example 1, 4-(2,3-Dihydro-1-benzofuran-4-ylamino)-8-methyl-6-(methylthio)-1,7-naphthyridine-3-carboxamide]
2 | 0.398 | 0.631 | > 10 | > 10 | Cc1nc([S+](C)[O-])cc2c(Nc3cccc4c3CCO4)c(C(N)=O)cnc12 (racemic) [Example 3, (±)-4-(2,3-Dihydro-1-benzofuran-4-ylamino)-8-methyl-6-(methylsulfinyl)-1,7-naphthyridine-3-carboxamide]
3 | 0.126 | 0.2 | > 10 | > 10 | Cc1nc(S(C)(=O)=O)cc2c(Nc3cccc4c3CCO4)c(C(N)=O)cnc12 [Example 2, 4-(2,3-Dihydro-1-benzofuran-4-ylamino)-8-methyl-6-(methylsulfonyl)-1,7-naphthyridine-3-carboxamide]

— patent publication US20090270444A1, “1,7-Naphthyridines” (priority 2004, published 2009)
